# Assay results as given in patent US10485814B2, “Nicotinamide riboside analogs and pharmaceutical compositions and uses thereof” (GlaxoSmithKline Intellectual Property (No. 2) Limited, priority 2014, dated 2019).
# “Also recorded” adds a separate entry of the source.
# What was measured:
# [1] = system: Human dermal fibroblasts; experiment: TNFα-induced gene expression in dermal fibroblasts (QPCR); type: cell-based; details: 30 hr
# Description: Human dermal fibroblasts were grown in regular culture media as described in example 23 above and seeded in 12-well plates at 2×10^5 cells per well for overnight. Cells were then replenished with fresh medium and treated with TNFα (10 ng/ml) with and without NRH (200 μM) for 30 hr. At the end of the incubation, cells were washed once with HBSS with Ca^2+ and Mg^2+ (Life Technologies), and subject to RNA isolation and QPCR analyses.
# [2] = system: HaCaT cells; experiment: H2O2-induced reactive oxygen species (ROS) in HaCaT cells (CellROX deep red); type: cell-based, human; details: 3 hr pre-incubation then 250 μM H2O2, Hydroxyterosol 0.005%, niacinamide 4.5 mM, NRH several concentrations
# Description: HaCaT cells were grown as described in example 23 and were seeded in 96-well plates (Nunc™ black with optical bottom, Thermo Fisher Scientific, Inc., Waltham, Mass.) with a density at 2×10^4 cells per well and 100 μl medium in each well, and grown overnight before treatments. Stock solutions of NRH and other test compounds were prepared and diluted to 2× of final treatment concentrations in DMEM medium in 96-well storage plate as indicated in the FIG. 11. HaCaT Cells were treated in triplicates by adding 100 μl of diluted solutions of test compounds (2×) to each well containing 100 μl medium already. Cells were incubated in the presence of test compounds for 3 hrs. At the end of 3 hr incubation, cells were washed once with 200 μl DPBS with Ca^++ and Mg^++ (Life Technologies) and then fed with 100 μl DMEM medium each well containing H2O2 at 250 μM (as a ROS (reactive oxygen species) inducer, Sigma). After 30 min incubation, cells were washed once with 200 μl DPBS with Ca^++ and Mg^++ and CellROX deep red reagent (2.5 mM stock solution, Life Technologies) was added to the medium to a final concentration of 5 μM. After 1 hr incubation at 37° C., 5% CO2, Cells were washed for 3 times with DPBS, fluorescence signal was read at Ex. 640 nm and Em. 665 nm in Biotek Synergy H4 microplate reader (BioTek, Winooski, Vt.). Untreated cells were served as controls (normalized to 1). All the treated samples were normalized to the untreated control.
# [3] = Storage in a 93% RH salt chamber; type: physicochemical; details: approximately 22° C., approximately 2¼ hours
# Description: XRD indicated the sample was amorphous (FIG. 16). A sample of NRH was stored in a 93% RH (relative humidity) salt chamber (at approximately 22° C.) for approximately 2¼ hours. The sample had deliquesced and there was no evidence of crystallization based on XRD analysis.
# [4] = system: HaCaT cells (a human keratinocyte cell line); experiment: Intracellular NAD measurement in HaCaT cells (ADPR cyclase enzymatic assay, absorbance 405 nm); type: cell-based
# Description: HaCaT cells (AddexBio Technologies, San Diego, Calif., Passage 16-19) were grown in Medium DMEM/GlutMax (Life technologies, Grand Island, N.Y.) supplemented with 10% FBS (Life technologies) and Non-essential amino acids (NEAA, Life technologies) and then seeded in 12-well plates (Corning, Tewksbury, Mass.) with a density at 2×10^5 cells per well and 2 ml of culture medium in each well for overnight.
# Stock solution of dihydronicotinamide riboside (NRH, GSK3008320A, GSK, RTP, NC) was prepared in ethanol at 100 mM (25.6 mg/ml) and stored at −20° C. Cells were treated with different concentrations of NRH for 3 hrs, washed twice with PBS containing 5 mM EDTA, and then subject to Nicotinamide adenine dinucleotide (NAD) measurement. In brief, acetonitrile (ACN) lysis buffer (Ammonium Acetate (50 mM) and 90% acetonitrile) was added to each well (200 μl/well) to lyse the cells at RT for 5-10 mins by gently rotating on a culture plate shaker at a low speed. Enzyme master mix (300 μM of 5-Amino-(3,4′-bipyridin)-6(1H)-one (Inamrinone) (Sigma-Aldrich), a substrate for ADP ribosyl cyclase (ADPR cyclase)) and 30 nM ADPR Cyclase (Sigma, St. Louis, Mo.), 7.5 μM of N-(2-fluoro-4-(methylsulfonyl)phenyl)-2-methyl-6-(thiazol-5-yl)isonicotinamide (a CD38 inhibitor) in 75 mM HEPES pH7 buffer (Life Technologies)) was added to the lysed cells (400 μl of enzyme master mix/well). Enzymatic reaction was incubated at RT for ˜30 min. At the end of incubation, the supernatant (200 μl) of the reaction solution from each well was transferred to each well of a 96-well plate and absorbance was read twice in the 96-well plate at 405 nm using a plate reader (Spectra Maxplus, Molecular Devices, Sunnyvale, Calif.). A mixture of enzyme master mix and ACN extraction solution at 2:1 ratio was used as a blank reference. NAD (Sigma) was used as a positive control.
# HaCaT cells were grown as described in example 23 in the regular cell culture DMEM medium as described earlier or in the Epilife medium without nacinamide (Life Technologies). Cells were treated with different concentrations of NRH or niacinamide (NIA, DSM nutritional products) for 3 hrs, washed twice with PBS containing 5 mM EDTA, and then subject to Nicotinamide adenine dinucleotide (NAD) measurement as described in example 23. A mixture of enzyme master mix and ACN extraction solution at 2:1 ratio for a blank reference. NAD (Sigma) was used as a positive control. […] Both the CD38 inhibitor and Niacinamide increased NAD in the HaCaT cells cultured in the Vit B3 depleted culture medium, and the induction of NAD by niacinamide was dose-dependent (solid bars). However, the induction of NAD by niacinamide (highest at ˜1.5 fold) was low compared to those by NRH. Therefore, NRH is a stronger NAD inducer compared to a CD38 inhibitor or Niacinamide.
# HaCaT cells were grown in regular culture media as described in example 1 and seeded in 12-well plates with density at 2×10^5 cells per well and 1 ml of culture medium in each well. NRH stock solution was prepared in ethanol at 100 mM (25.6 mg/ml) and stored at −20° C. Stock solutions of NRH esters were made at 50 mM in DMSO (see FIG. 9B for compound info). Cells were treated with NRH esters and NRH at 150 μM for 6 and 16 hrs, washed twice with PB S containing 5 mM EDTA, and then subject to Nicotinamide adenine dinucleotide (NAD) measurement as described in example 23.
# HaCaT cells were grown in regular culture media as described above and seeded in 12-well plates with density at 2×10^5 cells per well and 1 ml of culture medium in each well. NRH stock solution was prepared in ethanol at 100 mM (25.6 mg/ml) and stored at −20° C. NRH (200 μM) was used as a positive control. Because of the possible solubility issue related to NRH monoC16, fatty acid-free bovine serum albumin (defatted BSA, Sigma) was used as a carrier for the compound. NRH monoC16 stock solution (100×) was complexed with defatted BSA ([…]) prior to the treatment, resulting in a NRH monoC16 stock solution (10 ×). […]
compound,measurement,setting,value
"NC(=O)C1=CN([C@@H]2O[C@H](CO)[C@@H](O)[C@H]2O)C=CC1 [NRH, dihydronicotinamide riboside]",basal COX-2 gene expression,[1]; NRH 200 μM,reduced
same,expression level of NRF2,[1]; NRH 200 μM,slightly increased
same,TNF-α-induced COX-2 gene expression,[1]; TNFα 10 ng/ml with NRH 200 μM,reduced
same,H2O2-induced ROS,[2],dose-dependent inhibitory activities
same,behaviour on storage at high humidity,[3],deliquesced
same,NAD levels elevation,"[4]; HaCaT in DMEM medium with Vit B3, 450 μM, 3 hrs",~6 fold
same,NAD level,"[4]; HaCaT keratinocytes, different concentrations, 3 hrs, absorbance at 405 nm",dose-dependently increases NAD; also recorded: dose-dependently increases NAD^+
same,NAD boosting activity,"[4]; HaCaT, 150 μM, 6 and 16 hrs",consistently showed strong activity on NAD elevation
